How the values were obtained:
Histamine H3 receptor [1] = biological target: T1, Histamine H3 receptor (Homo sapiens, UniProt Q9Y5N1); assay: Antagonist activity at human histamine H3 receptor; type: functional; conditions: read-out: pA2 (converted)
Histamine H3 receptor [2] = biological target: T1, Histamine H3 receptor; assay: Binding affinity to human histamine H3 receptor
[3] = Oral bioavailability in rat at 10 mg/kg; type: ADME, organism-based; conditions: in vivo
[4] = Clearance in rat at 10 mg/kg, iv; type: ADME, organism-based; set-up: dose 10 mg/kg, route intravenous; conditions: in vivo
Cytochrome P450 2D6 = Cytochrome P450 2D6 (Homo sapiens, UniProt P10635); assay: Inhibition of CYP2D6; type: ADME
Cytochrome P450 2D6, sequence (P10635 whole entry): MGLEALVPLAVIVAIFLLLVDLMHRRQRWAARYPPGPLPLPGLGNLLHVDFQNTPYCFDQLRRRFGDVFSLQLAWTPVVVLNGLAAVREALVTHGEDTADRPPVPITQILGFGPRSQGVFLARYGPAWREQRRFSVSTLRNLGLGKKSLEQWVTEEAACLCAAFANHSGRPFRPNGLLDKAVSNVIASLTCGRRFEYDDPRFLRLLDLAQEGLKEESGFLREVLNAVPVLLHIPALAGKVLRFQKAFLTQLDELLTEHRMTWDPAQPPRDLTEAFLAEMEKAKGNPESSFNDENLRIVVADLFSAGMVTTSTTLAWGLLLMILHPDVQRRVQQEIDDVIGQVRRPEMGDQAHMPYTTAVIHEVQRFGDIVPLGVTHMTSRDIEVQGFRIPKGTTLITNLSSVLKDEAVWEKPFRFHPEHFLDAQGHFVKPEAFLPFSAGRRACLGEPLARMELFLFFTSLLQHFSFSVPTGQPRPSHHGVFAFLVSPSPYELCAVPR

Cytochrome P450 3A4 = Cytochrome P450 3A4 (Homo sapiens, UniProt P08684); assay: Inhibition of CYP3A4; type: ADME
Cytochrome P450 3A4, sequence (P08684 whole entry): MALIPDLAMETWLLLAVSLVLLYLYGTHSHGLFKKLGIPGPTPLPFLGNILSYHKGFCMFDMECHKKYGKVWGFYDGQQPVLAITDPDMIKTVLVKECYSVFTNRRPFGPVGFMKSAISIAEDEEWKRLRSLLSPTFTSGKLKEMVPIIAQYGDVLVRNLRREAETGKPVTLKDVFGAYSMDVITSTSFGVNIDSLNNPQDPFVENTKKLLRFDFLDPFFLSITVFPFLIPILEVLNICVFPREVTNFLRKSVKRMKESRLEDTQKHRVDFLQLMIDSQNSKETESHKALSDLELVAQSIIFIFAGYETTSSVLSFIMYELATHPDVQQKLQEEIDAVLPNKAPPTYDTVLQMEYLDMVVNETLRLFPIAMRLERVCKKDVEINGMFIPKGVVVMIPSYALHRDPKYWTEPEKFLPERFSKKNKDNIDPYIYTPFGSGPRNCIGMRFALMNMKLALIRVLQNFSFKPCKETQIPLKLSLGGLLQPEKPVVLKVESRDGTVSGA

[5] = Drug level in rat at 10 mg/kg, ip after 48 hrs; type: ADME, organism-based; set-up: dose 10 mg/kg, route intraperitoneal; conditions: in vivo, read-out: Drug uptake
Cytochrome P450 1A2 = biological target: T2, Cytochrome P450 1A2 (Homo sapiens, UniProt P05177); assay: Inhibition of CYP1A2; type: ADME
T2 sequence (P05177 whole entry): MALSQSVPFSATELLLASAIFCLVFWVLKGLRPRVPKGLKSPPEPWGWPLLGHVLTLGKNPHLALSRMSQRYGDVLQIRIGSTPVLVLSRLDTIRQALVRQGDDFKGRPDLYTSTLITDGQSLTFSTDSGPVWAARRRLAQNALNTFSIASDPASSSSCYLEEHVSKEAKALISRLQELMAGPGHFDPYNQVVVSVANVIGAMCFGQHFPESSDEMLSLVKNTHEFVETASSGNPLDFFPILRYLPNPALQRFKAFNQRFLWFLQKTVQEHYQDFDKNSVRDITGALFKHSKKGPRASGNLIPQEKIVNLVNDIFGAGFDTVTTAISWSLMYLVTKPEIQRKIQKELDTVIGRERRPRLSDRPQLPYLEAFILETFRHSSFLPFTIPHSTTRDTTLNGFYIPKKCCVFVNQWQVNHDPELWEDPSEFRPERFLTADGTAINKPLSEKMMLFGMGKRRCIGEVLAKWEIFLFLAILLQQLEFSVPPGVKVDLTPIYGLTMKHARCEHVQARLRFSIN

[6] = Binding affinity to sigma receptor at 10 uM
[7] = Drug level in rat brain at 10 mg/kg, ip after 60 mins; type: ADME, organism-based; set-up: dose 10 mg/kg, route intraperitoneal; conditions: read-out: Drug uptake
[8] = Volume of distribution in rat at 10 mg/kg, iv; type: ADME, organism-based; set-up: dose 10 mg/kg, route intravenous; conditions: in vivo
Cytochrome P450 2C19 = Cytochrome P450 2C19 (Homo sapiens, UniProt P33261); assay: Inhibition of CYP2C19; type: ADME
Cytochrome P450 2C19, sequence (P33261 whole entry): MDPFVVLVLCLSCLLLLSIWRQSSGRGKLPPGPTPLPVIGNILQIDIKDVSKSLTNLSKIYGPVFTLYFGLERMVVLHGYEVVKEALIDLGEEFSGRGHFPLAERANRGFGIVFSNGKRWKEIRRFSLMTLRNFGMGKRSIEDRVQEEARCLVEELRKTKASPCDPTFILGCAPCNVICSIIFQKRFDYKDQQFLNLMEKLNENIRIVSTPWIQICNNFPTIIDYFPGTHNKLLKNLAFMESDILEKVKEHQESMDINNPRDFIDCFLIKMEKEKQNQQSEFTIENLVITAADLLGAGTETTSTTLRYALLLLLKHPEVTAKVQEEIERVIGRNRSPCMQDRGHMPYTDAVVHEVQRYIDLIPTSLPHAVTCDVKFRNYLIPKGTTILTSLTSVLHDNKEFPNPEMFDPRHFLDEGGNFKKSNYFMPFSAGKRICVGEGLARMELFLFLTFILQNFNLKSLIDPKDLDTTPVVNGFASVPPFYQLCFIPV

Histamine H3 receptor [9] = biological target: Histamine H3 receptor (Rattus norvegicus, UniProt Q9QYN8); assay: Antagonist activity at rat histamine H3 receptor; type: functional; conditions: read-out: pA2 (converted)
Histamine H3 receptor (Rattus norvegicus, UniProt Q9QYN8), sequence (Q9QYN8 whole entry): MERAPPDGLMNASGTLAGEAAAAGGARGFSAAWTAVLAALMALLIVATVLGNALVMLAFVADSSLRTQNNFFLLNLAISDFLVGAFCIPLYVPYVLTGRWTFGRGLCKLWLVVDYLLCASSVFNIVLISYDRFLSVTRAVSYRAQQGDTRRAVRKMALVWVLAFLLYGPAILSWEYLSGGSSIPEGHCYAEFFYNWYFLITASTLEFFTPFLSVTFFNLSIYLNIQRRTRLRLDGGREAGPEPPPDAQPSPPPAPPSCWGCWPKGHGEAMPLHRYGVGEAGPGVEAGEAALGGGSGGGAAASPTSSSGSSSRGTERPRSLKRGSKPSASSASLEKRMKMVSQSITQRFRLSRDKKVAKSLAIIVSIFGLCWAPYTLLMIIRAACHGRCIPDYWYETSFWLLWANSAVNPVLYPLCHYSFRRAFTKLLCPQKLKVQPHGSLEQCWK

[10] = Plasma concentration in rat 10 mg/kg, ip after 60 mins; type: ADME, organism-based; set-up: dose 10 mg/kg, route intraperitoneal
[11] = Half life in rat at 10 mg/kg, po; type: ADME, organism-based; set-up: dose 10 mg/kg, route oral; conditions: in vivo
Cytochrome P450 2C9 = Cytochrome P450 2C9 (Homo sapiens, UniProt P11712); assay: Inhibition of CYP2C9; type: ADME
Cytochrome P450 2C9, sequence (P11712 whole entry): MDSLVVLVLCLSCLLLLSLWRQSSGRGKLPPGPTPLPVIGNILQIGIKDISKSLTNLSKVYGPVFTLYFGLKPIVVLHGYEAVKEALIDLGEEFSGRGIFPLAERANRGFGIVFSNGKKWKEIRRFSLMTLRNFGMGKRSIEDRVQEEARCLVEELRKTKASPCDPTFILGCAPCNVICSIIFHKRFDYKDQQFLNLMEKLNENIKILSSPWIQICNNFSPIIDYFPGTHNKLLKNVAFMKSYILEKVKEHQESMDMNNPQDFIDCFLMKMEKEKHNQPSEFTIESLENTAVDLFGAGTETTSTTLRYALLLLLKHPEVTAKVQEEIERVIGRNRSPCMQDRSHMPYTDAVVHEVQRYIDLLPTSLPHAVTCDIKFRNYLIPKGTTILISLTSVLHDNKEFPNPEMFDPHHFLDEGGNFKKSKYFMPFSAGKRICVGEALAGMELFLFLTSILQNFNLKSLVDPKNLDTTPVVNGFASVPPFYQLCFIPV

[12] = Metabolic stability in rat liver microsomes assessed as half life; type: ADME, Microsome
[13] = Metabolic stability in human liver microsomes assessed as half life; type: ADME, Microsome

T1 sequence (Q9Y5N1 whole entry): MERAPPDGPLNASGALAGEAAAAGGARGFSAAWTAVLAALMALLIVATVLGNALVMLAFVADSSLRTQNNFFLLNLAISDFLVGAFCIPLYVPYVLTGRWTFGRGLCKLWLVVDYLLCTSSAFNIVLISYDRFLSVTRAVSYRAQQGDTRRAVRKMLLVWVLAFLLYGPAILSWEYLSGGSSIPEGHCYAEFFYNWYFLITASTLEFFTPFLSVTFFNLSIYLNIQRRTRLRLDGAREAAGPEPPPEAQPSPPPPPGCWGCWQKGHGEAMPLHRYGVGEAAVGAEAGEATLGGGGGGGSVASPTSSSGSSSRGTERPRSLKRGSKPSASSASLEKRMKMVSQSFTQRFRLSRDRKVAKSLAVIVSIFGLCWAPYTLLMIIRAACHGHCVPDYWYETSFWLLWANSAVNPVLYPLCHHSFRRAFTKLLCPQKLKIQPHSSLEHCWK

Row | Structure (SMILES) | Kb (Histamine H3 receptor [1]) [nM] | Ki (Histamine H3 receptor [2]) [nM] | other results
1 | CC(C)N1CCC(COc2ncc(C(=O)c3ccc([N+](=O)[O-])cc3)n2C)CC1 | 1 | 4 | –
2 | CC(C)N1CCC(Oc2ncc(C(=O)c3ccc(Cl)cc3)n2C)CC1 | 6.31 | 10 | –
3 | CC(C)N1CCC(COc2ncc(C(=O)c3ccc(Cl)cc3)n2C)CC1 | 0.501 | 3 | bioavailability [3]: 10%; clearance [4]: 9.3 mL/min/kg; IC50 (Cytochrome P450 2D6): > 10000 nM; IC50 (Cytochrome P450 3A4): > 10000 nM; concentration at 48 h [5]: 3.8 µM; IC50 (Cytochrome P450 1A2): > 10000 nM; Activity [6]: 77%; concentration at 1 h [7]: 17 µM; Vd [8]: 5.2 L/kg; IC50 (Cytochrome P450 2C19): > 10000 nM; Kb (Histamine H3 receptor [9]): 10 nM; concentration at 1 h [10]: 2.6 µM; half-life [11]: 9 h; IC50 (Cytochrome P450 2C9): > 10000 nM
4 | CC(C)N1CCC(COc2ncc(C(=O)c3ccccc3)n2C)CC1 | 0.316 | 1 | –
5 | CN(C)CCCSc1ncc(C(=O)c2ccc(Cl)cc2)n1C | 2 | 5 | –
6 | c1cc(Sc2ccc([C@H]3CC[C@H]4CCCCN43)cc2)ccn1 | – | 12 | –
7 | CC(C)CCCSc1ncc(C(=O)c2ccc(Cl)cc2)n1C | 10000 | > 5000 | –
8 | CC(C)N1CCC(COc2ncc(C(=O)c3ccc(F)cc3)n2C)CC1 | 0.316 | 3 | –
9 | CC(C)N1CCC(COc2ncc(C(=O)c3ccc(Br)cc3)n2C)CC1 | 0.794 | 3 | –
10 | Cn1c(C(=O)c2ccc(Cl)cc2)cnc1SCCCN1CCCCC1 | 20 | 6 | half-life [12]: 0.117 h; half-life [13]: 2.48 h
11 | Cn1c(C(=O)c2ccc(Cl)cc2)cnc1CCCCN1CCCCC1 | 10 | 24 | half-life [12]: 0.0667 h; half-life [13]: 2.98 h
12 | Cn1c(C(=O)c2ccc(Cl)cc2)cnc1OCCCN1CCCCC1 | 12.6 | 14 | half-life [12]: 0.917 h; half-life [13]: > 3 h
13 | CC(C)N1CCC(Sc2ncc(C(=O)c3ccc(Cl)cc3)n2C)CC1 | 0.501 | 2 | –
14 | Cn1c(C(=O)c2ccc(Cl)cc2)cnc1SCCCCN1CCCCC1 | – | 50 | –
15 | CN(C)CCCSc1ncc(/C(=N\O)c2ccc(Cl)cc2)n1C | 3.98 | 2 | –
16 | CC(C)N1CCC(COc2ncc(C(=O)c3ccc(C(F)(F)F)cc3)n2C)CC1 | 0.501 | 4 | –
17 | CCCCN(CCCC)CCCOc1ccc(-c2cn3cccc(C)c3n2)cc1 | – | 4 | –
18 | CN(C)CCCSc1ncc(C(O)c2ccc(Cl)cc2)n1C (stereo not given) | 3.98 | 18 | –
19 | CC(C)N1CCC(COc2ncc(C(=O)c3ccccc3Cl)n2C)CC1 | 0.00794 | 1 | –
20 | CC(C)N1CCC(COc2ncc(C(=O)c3cccc(Cl)c3)n2C)CC1 | 0.2 | 5 | –
21 | Cn1c(C(=O)c2ccc(Cl)cc2)cnc1NCCCN1CCCCC1 | 39.8 | 50 | half-life [12]: 0.0667 h; half-life [13]: > 3 h
22 | CC(C)N1CCC(CCOc2ncc(C(=O)c3ccc(Cl)cc3)n2C)CC1 | 79.4 | 70 | –
23 | CN(C)CCSc1ncc(Cc2ccc(Cl)cc2)n1C | 50.1 | 71 | –
24 | CC(C)c1ccc(C(=O)c2cnc(OCC3CCN(C(C)C)CC3)n2C)cc1 | 1.26 | 9 | –
25 | CN(C)CCCSc1ncc(Cc2ccc(Cl)cc2)n1C | 6.31 | 20 | –
26 | CC(C)N1CCC(COc2ncc(C(=O)c3cc(Cl)cc(Cl)c3)n2C)CC1 | 1 | – | –
